For eight compounds, GI50 and TGI results are on record in PubChem BioAssay (NCI).

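A five-concentration, 48-hour dose response in 96-well plates underlies each endpoint, interpolated linearly between surrounding concentrations. Here, GI50 denotes the concentration required for 50% inhibition of growth. TGI: concentration producing complete growth inhibition.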 Where only a bound is given, the exact number is not on record here.

Common to all, as to assay: NCI tumour cell line growth inhibition, 48 h
Test [1] concerns ACHN renal.
Test [2] relates to K-562 leukemia.
Test [3] has as its system MDA-MB-435.
Test [4] relates to NCI-H23 lung.
In test [5] the test system is OVCAR-3 ovarian.
Test [6] has as its system SK-OV-3 ovarian.
The test system of test [7] is SNB-75 CNS.
Test [8] relates to SR leukemia.
For test [9], the system named is TK-10 renal.
Test [10] concerns UO-31 renal.

Regarding `CCN(CC)c1sc(N(CC)CC)c2c1SSSSS2`, the GI50 in test [1] was 1.07 µM; in test [2], 1.64 µM; in [3], 0.844 µM; in [4], 0.255 µM; in [5] it was 1.44 µM; in test [6] it was 3.13 µM. Also, the GI50 in test [7] is 2.71 µM; in test [8], 0.267 µM; in [9], 0.765 µM; in test [10] it was 0.867 µM. Besides, the TGI in test [1] was 3.28 µM; in test [2], above 100 µM; in test [3], 2.09 µM; in test [4], 0.674 µM; in [5], 3.39 µM; in test [6], 6.98 µM. The TGI came to 4.52 µM in test [7], 0.998 µM in test [8], 1.88 µM in test [9] and 2.88 µM in test [10].

With `COc1cc(OC)c(/C=C/C(=O)c2c(OC)cccc2OC)c(OC)c1`, the GI50 in [1] was 0.703 µM; in test [2] it was 0.444 µM; in test [3], 0.263 µM; in test [4] it was 1.46 µM; in test [5], 0.431 µM; in [6] it was 0.79 µM. In addition, the GI50 in test [7] is 0.339 µM; in test [8], 0.517 µM; in test [9], 5.03 µM; in test [10], 0.899 µM. The TGI was above 100 µM in test [1]; above 100 µM in test [2]; 1.09 µM in test [3]; above 27.6 µM in [4]; above 100 µM in [6]; above 100 µM in test [8]. In addition, the TGI in test [9] and in test [10] was above 100 µM in each case.

As to `CC(=O)OC1CC(O)C23COC(O)C1(C)C2CC(O)C1(C)C3C(=O)C(O)C2(C)C(c3ccoc3)CC3OC321` (centres undefined), the GI50 in test [1] is 0.685 µM; in test [2], below 0.01 µM; in test [3], below 0.0152 µM; in test [5], 41.2 µM; in test [6], above 100 µM; in test [7], below 0.0397 µM. The GI50 in test [8] is below 0.01 µM; in test [9], above 100 µM; in test [10], 3.08 µM. Moreover, the TGI in test [1], in [3], in [4], in test [5], in test [6] and in test [7] was above 100 µM each time. Besides, the TGI in [8] was 0.0544 µM; in test [9], above 100 µM; in [10], above 41.4 µM.

For `CCN(CC)CCCC(C)Nc1c(C)cnc2cc(Cl)c(C)cc12` (centres undefined), the GI50 was 5.49 µM in [1]; 1.26 µM in test [2]; 7.8 µM in test [3]; 11.5 µM in test [4]; 10.1 µM in test [5]; 23.2 µM in [6]. Moreover, the results for the GI50 in test [7], in test [9] and in test [10] were 17.8 µM, 13.9 µM and 17.5 µM, respectively. For the same compound, the TGI is 31.5 µM in test [1]; 8.36 µM in [2]; 20.1 µM in test [3]; 23.9 µM in [4]; 27.4 µM in test [5]; above 58 µM in test [6]. Also, the TGI in [7] is 36 µM; in [8], 3.17 µM; in test [9], 28.4 µM; in test [10], above 78.5 µM.

For `CN/N=C(/CCN1CCCC1)CC(c1ccccc1)c1c(O)c2ccccc2oc1=O` (centres undefined), the TGI in [1], in [2], in [3], in test [4], in test [5] and in test [6] was above 100 µM throughout. Also, the TGI is above 31.6 µM in [7], above 100 µM in test [8], above 100 µM in test [9] and above 100 µM in test [10].

For the compound `COc1cc(C2=NN(C(C)=O)C(c3ccc(OC(C)=O)cc3OC(C)=O)O2)c(OC(C)=O)c2ccccc12` (centres undefined), the GI50 in [1] was 0.447 µM; in test [2] it was 0.872 µM; in test [3], 1.38 µM; in [4] it was 2.55 µM; in test [5], 0.402 µM; in test [6], 0.649 µM. In addition, the GI50 is 2.28 µM in test [7], 0.537 µM in [8], 1.31 µM in test [9] and 0.38 µM in [10]. The TGI in test [1] is above 35.6 µM; in [2], above 91.2 µM; in [3], 39 µM; in test [4] it was above 78.9 µM; in test [5], 13.9 µM; in test [6], 19.7 µM. Further, the TGI in test [7] is 29.6 µM; in test [8], above 27.4 µM; in test [9], 35.1 µM; in test [10], 7.12 µM.

`O=C(Nc1ccc(Cl)cc1)c1cc(-c2ccc(F)cc2)c2sc(=O)[nH]c2n1`: the GI50 was 1.69 µM in [1]; 0.581 µM in test [2]; 3.01 µM in [3]; 1.19 µM in test [4]; 0.944 µM in [5]; 1.57 µM in test [6]. Further, the GI50 in test [7] was 2.02 µM; in test [8] it was 0.672 µM; in test [9], 1.88 µM; in [10], 1.61 µM. Moreover, the TGI was determined as 4.02 µM in test [1]; 10.9 µM in test [2]; 17.4 µM in [3]; 5.79 µM in [4]; 11.4 µM in [5]; 5.41 µM in [6]. For the same compound, the TGI was 5.33 µM in [7], 10.5 µM in test [8], 4.94 µM in [9] and 3.89 µM in test [10].

As for `CC1CN1CC(O)C(O)CN1CC1C` (centres undefined), the GI50 is 0.395 µM in test [1]; 2.02 µM in test [2]; 4.93 µM in test [3]; 2.37 µM in [4]; 2.52 µM in [5]; 6.11 µM in [6]. In addition, the GI50 in test [7] is 4.08 µM; in test [8], 0.053 µM; in [9] it was 7.7 µM; in test [10], 0.932 µM. Further, the TGI in test [2] was above 100 µM; in test [3], 24.8 µM; in [4] it was above 75.4 µM; in test [5], 10.7 µM; in test [6], above 100 µM; in test [7], above 63 µM. In addition, the results for the TGI in test [8], in test [9] and in test [10] were above 100 µM, 65.7 µM and 10.9 µM, respectively.
